From patent US12162840B2, “Herbicidal compositions” (SYNGENTA PARTICIPATIONS AG, priority 2018, dated 2024)

System: warm season plant species
Assay: B2 Post-emergence efficacy Test 2, warm season plant species
Format: in vivo
Settings: 15 days after application, 0-100 scale, 0=no damage, 100=total kill; for Herbicidal activity, ABUTH: Abutilon theophrasti; for Herbicidal activity, AMARE: Amaranthus retroflexus; for Herbicidal activity, BIDPI: Bidens pilosa; for Herbicidal activity, BRAPL: Brachiaria plantaginea; for Herbicidal activity, DIGSA: Digitaria sanguinalis; for Herbicidal activity, ECHCG: Echinochloa crus galli; for Herbicidal activity, ELEIN: Eleisine indica; for Herbicidal activity, EPHHL: Euphorbia hetrophylla; for Herbicidal activity, GLXMA: Glycine max; for Herbicidal activity, IPOHE: Ipomoea hederacea; for Herbicidal activity, ORYSA: Orysa sativa; for Herbicidal activity, PANMI: Panicum miliaceum; for Herbicidal activity, SETFA: Setaria faberi; for Herbicidal activity, SIDSP: Sida spinosa; for Herbicidal activity, SORVU: Sorghum bicolour; for Herbicidal activity, XANST: Xanthium strumarium; for Herbicidal activity, ZEAMX: Zea mays
In short: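 Plants at 12 days post-sowing were sprayed with active ingredient formulated in IF50 plus 0.2% v/v Genapol XO80, then grown in a glasshouse (24/18 °C or 20/16 °C day/night, 16 h light, 65% humidity). Damage scored 15 days after application on 0–100 scale (100 = total kill).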

Cc1nn(C)c(=O)c(-c2c(F)ccc(Cl)c2CCc2ccc(F)cc2)c1OC(=O)C(C)C [Compound 1.125]
Herbicidal activity, ABUTH (15 g/Ha): 80 | Herbicidal activity, ABUTH (30 g/Ha): 90 | Herbicidal activity, ABUTH (60 g/Ha): 90 | Herbicidal activity, ABUTH (125 g/Ha): 90 | Herbicidal activity, ABUTH (250 g/Ha): 100 | Herbicidal activity, ABUTH (500 g/Ha): 100 | Herbicidal activity, AMARE (15 g/Ha): 80 | Herbicidal activity, AMARE (30 g/Ha): 90 | Herbicidal activity, AMARE (60 g/Ha): 90 | Herbicidal activity, AMARE (125 g/Ha): 100 | Herbicidal activity, AMARE (250 g/Ha): 100 | Herbicidal activity, AMARE (500 g/Ha): 100 | Herbicidal activity, BIDPI (15 g/Ha): 60 | Herbicidal activity, BIDPI (30 g/Ha): 60 | Herbicidal activity, BIDPI (60 g/Ha): 70 | Herbicidal activity, BIDPI (125 g/Ha): 70 | Herbicidal activity, BIDPI (250 g/Ha): 80 | Herbicidal activity, BIDPI (500 g/Ha): 100 | Herbicidal activity, BRAPL (15 g/Ha): 80 | Herbicidal activity, BRAPL (60 g/Ha): 80 | Herbicidal activity, BRAPL (125 g/Ha): 80 | Herbicidal activity, BRAPL (250 g/Ha): 70 | Herbicidal activity, BRAPL (500 g/Ha): 80 | Herbicidal activity, DIGSA (15 g/Ha): 0 | Herbicidal activity, DIGSA (30 g/Ha): 0 | Herbicidal activity, DIGSA (60 g/Ha): 0 | Herbicidal activity, DIGSA (125 g/Ha): 10 | Herbicidal activity, DIGSA (250 g/Ha): 30 | Herbicidal activity, DIGSA (500 g/Ha): 70 | Herbicidal activity, ECHCG (15 g/Ha): 70 | Herbicidal activity, ECHCG (30 g/Ha): 80 | Herbicidal activity, ECHCG (60 g/Ha): 80 | Herbicidal activity, ECHCG (125 g/Ha): 80 | Herbicidal activity, ECHCG (250 g/Ha): 90 | Herbicidal activity, ECHCG (500 g/Ha): 100 | Herbicidal activity, ELEIN (15 g/Ha): 40 | Herbicidal activity, ELEIN (30 g/Ha): 40 | Herbicidal activity, ELEIN (60 g/Ha): 70 | Herbicidal activity, ELEIN (125 g/Ha): 70 | Herbicidal activity, ELEIN (250 g/Ha): 80 | Herbicidal activity, ELEIN (500 g/Ha): 80 | Herbicidal activity, EPHHL (15 g/Ha): 90 | Herbicidal activity, EPHHL (30 g/Ha): 90 | Herbicidal activity, EPHHL (60 g/Ha): 100 | Herbicidal activity, EPHHL (125 g/Ha): 100 | Herbicidal activity, EPHHL (250 g/Ha): 100 | Herbicidal activity, EPHHL (500 g/Ha): 100 | Herbicidal activity, GLXMA (15 g/Ha): 40 | Herbicidal activity, GLXMA (30 g/Ha): 70 | Herbicidal activity, GLXMA (60 g/Ha): 70 | Herbicidal activity, GLXMA (250 g/Ha): 90 | Herbicidal activity, GLXMA (500 g/Ha): 90 | Herbicidal activity, IPOHE (15 g/Ha): 90 | Herbicidal activity, IPOHE (30 g/Ha): 100 | Herbicidal activity, IPOHE (60 g/Ha): 100 | Herbicidal activity, IPOHE (125 g/Ha): 100 | Herbicidal activity, IPOHE (250 g/Ha): 100 | Herbicidal activity, IPOHE (500 g/Ha): 100 | Herbicidal activity, ORYSA (15 g/Ha): 0 | Herbicidal activity, ORYSA (30 g/Ha): 0 | Herbicidal activity, ORYSA (60 g/Ha): 0 | Herbicidal activity, ORYSA (125 g/Ha): 0 | Herbicidal activity, ORYSA (250 g/Ha): 0 | Herbicidal activity, ORYSA (500 g/Ha): 0 | Herbicidal activity, PANMI (15 g/Ha): 20 | Herbicidal activity, PANMI (30 g/Ha): 30 | Herbicidal activity, PANMI (60 g/Ha): 50 | Herbicidal activity, PANMI (125 g/Ha): 50 | Herbicidal activity, PANMI (250 g/Ha): 70 | Herbicidal activity, PANMI (500 g/Ha): 80 | Herbicidal activity, SETFA (15 g/Ha): 0 | Herbicidal activity, SETFA (30 g/Ha): 10 | Herbicidal activity, SETFA (60 g/Ha): 20 | Herbicidal activity, SETFA (125 g/Ha): 20 | Herbicidal activity, SETFA (250 g/Ha): 20 | Herbicidal activity, SETFA (500 g/Ha): 100 | Herbicidal activity, SIDSP (60 g/Ha): 80 | Herbicidal activity, SIDSP (125 g/Ha): 90 | Herbicidal activity, SIDSP (250 g/Ha): 90 | Herbicidal activity, SIDSP (500 g/Ha): 100 | Herbicidal activity, SORVU (15 g/Ha): 0 | Herbicidal activity, SORVU (30 g/Ha): 50 | Herbicidal activity, SORVU (60 g/Ha): 50 | Herbicidal activity, SORVU (125 g/Ha): 70 | Herbicidal activity, SORVU (250 g/Ha): 80 | Herbicidal activity, SORVU (500 g/Ha): 90 | Herbicidal activity, XANST (30 g/Ha): 90 | Herbicidal activity, XANST (60 g/Ha): 90 | Herbicidal activity, XANST (125 g/Ha): 90 | Herbicidal activity, XANST (250 g/Ha): 90 | Herbicidal activity, XANST (500 g/Ha): 100 | Herbicidal activity, ZEAMX (15 g/Ha): 0 | Herbicidal activity, ZEAMX (30 g/Ha): 20 | Herbicidal activity, ZEAMX (60 g/Ha): 30 | Herbicidal activity, ZEAMX (125 g/Ha): 20 | Herbicidal activity, ZEAMX (250 g/Ha): 40 | Herbicidal activity, ZEAMX (500 g/Ha): 70
